The test system of assay [1] is human SMN2 transgene exon 7 C840T (C6T) in SMA mESCs. Kind of assay: Adenine base editing of SMN2 C840T (C6T) after transfection of SMA mESCs. Format: cell-based, mouse. To be noted: ABE8 fusions, FIG. 4.
Assay [2] relates to DNA. To be noted: SpCas9 mutation relative to SEQ ID NO: 5; UniProtKB Q99ZW2 entry; cited from earlier work.

Consider 2 molecules from patent publication US20230108687A1, “GENE EDITING METHODS FOR TREATING SPINAL MUSCULAR ATROPHY” (The Broad Institute, Inc., priority 2020, published 2023).

Take “iSpyMac: iSpyMac-variant ABE8e adenine base editor; SEQ ID NO: 476”: in assay [1], the “editing of C840T” value is given as “edited C840T with high efficiency”.

B1: 175-307 deletion: SpCas9 mutation relative to SEQ ID NO: 5 (protein)
chain: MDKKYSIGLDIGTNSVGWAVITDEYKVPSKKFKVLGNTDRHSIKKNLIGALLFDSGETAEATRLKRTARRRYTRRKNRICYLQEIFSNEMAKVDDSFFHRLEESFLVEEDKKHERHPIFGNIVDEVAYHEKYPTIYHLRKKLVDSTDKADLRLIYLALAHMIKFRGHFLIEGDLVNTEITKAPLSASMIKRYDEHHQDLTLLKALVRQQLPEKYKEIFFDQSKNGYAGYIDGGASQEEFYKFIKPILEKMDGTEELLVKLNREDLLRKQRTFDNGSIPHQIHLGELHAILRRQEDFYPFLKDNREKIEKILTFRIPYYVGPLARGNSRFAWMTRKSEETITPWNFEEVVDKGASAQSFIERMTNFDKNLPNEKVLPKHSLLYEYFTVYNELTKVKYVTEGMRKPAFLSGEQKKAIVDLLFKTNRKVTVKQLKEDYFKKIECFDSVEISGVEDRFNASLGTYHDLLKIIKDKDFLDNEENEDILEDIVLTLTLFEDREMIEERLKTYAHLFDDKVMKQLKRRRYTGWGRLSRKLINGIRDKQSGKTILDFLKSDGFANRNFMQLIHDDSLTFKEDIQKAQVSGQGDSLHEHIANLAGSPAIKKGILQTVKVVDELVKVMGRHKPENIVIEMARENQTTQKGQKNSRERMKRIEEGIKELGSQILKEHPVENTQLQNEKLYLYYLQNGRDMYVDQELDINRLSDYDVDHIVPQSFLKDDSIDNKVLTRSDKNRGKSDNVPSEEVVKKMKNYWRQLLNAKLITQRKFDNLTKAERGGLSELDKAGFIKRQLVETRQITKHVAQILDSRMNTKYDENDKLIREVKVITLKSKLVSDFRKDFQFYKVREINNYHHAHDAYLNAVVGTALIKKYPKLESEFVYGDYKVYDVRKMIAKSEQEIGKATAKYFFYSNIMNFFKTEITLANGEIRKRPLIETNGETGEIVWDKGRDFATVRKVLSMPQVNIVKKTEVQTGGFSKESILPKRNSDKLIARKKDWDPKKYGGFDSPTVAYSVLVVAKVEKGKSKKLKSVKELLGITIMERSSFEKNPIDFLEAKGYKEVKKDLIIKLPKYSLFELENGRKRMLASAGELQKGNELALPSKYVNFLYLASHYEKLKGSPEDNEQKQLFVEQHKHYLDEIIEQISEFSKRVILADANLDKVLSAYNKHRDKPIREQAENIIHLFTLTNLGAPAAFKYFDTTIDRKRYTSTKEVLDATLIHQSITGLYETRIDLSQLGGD
modifications: Streptococcus pyogenes
For the molecule B1, the “decreased DNA cleavage” value in assay [2] is “About 50% decreased DNA cleavage”.
